Experimental data from patent US9334279B2, “Hepatitis C virus inhibitors” (BRISTOL-MYERS SQUIBB COMPANY, priority 2012, dated 2016).
Read-outs that look alike come from different tables or passages of the source.

How the values were obtained:
HCV GT1a(H77) replicon = assay: HCV replicon luciferase reporter assay, genotype 1a; type: cell-based, HCV genotype 1a; conditions: Hepatitis C virus, 72 h, HUH-7 cells, Renilla luciferase, 3 days incubation
Text: A stable HCV GT1a(H77) replicon luciferase reporter cell line (Yanagi M, Purcell RH, Emerson S U, et al. Transcripts from a single full-length cDNA clone of hepatitis C virus are infectious when directly transfected into the liver of a chimpanzee. Proc Natl Acad Sci USA 1997; 94(16):8738-8743) was generated as described previously for the genotype 1b(Con1) replicon luciferase cell line. The replicon construct was modified by introducing mutations into the genes encoding the NS3 helicase domain (proline replaced by leucine at position 1496) and NS5A (serine to isoleucine at position 2204) to improve replication in cell culture.
(§1) HCV replicon luciferase assays were developed to monitor the inhibitory effects of compounds described in the disclosure on HCV genotypes 1a and 1b viral replication. HUH-7 cells, constitutively expressing the HCV replicon, were grown in Dulbecco's Modified Eagle Media (DMEM) (Gibco-BRL) containing 10% Fetal calf serum (FCS) (Sigma) and 1 mg/mL G418 (Gibco-BRL). Compounds were serially diluted 3 folds in DMSO for a twenty-point titration and subsequently transferred to sterile 384-well tissue-culture treated plates (Corning cat #3571). The plates were then seeded with 50 μL of cells at a density of 3.0×10^3 cells/well in DMEM containing 4% FCS (final DMSO concentration at 0.5%). After 3 days incubation at 37° C., cells were analyzed for Renilla Luciferase activity using the EnduRen as substrate (Promega cat #E6485). The EnduRen substrate was diluted in DMEM and then added to the plates to a final concentration of 7.5 μM. The plates were incubated for 2 hrs at 37° C. and then read immediately for 30 seconds with Viewlux Imager (PerkinElmer) using a luminescence program. To assess cytotoxicity of compounds, CC50 values were generated by multiplexing the EnduRen-containing plates with Cell Titer-Blue (Promega, cat #G8082). Cell-Titer Blue (3 μL) was added to each well and incubated for 8 hrs at 37° C. The fluorescence signal from each well was read, with an excitation wavelength at 525/10 nm and an emission wavelength of 598/10 nm, using the Viewlux Imager.
(§2) The EC50 values for compounds were calculated by using a four-parameter logistic equation: y=A+[…])/(1+((C/x)^D))), where A and B denotes minimal and maximal % inhibition, respectively, C is the EC50, D is the hill slope and x represents compound concentration.

HCV GT1b(Con1) replicon = assay: HCV replicon luciferase reporter assay, genotype 1b; type: cell-based, HCV genotype 1b; conditions: Hepatitis C virus, 72 h, HUH-7 cells, Renilla luciferase, 3 days incubation
Text: An HCV GT1b(Con1) replicon cell system was established as described by Lohmann V, Korner F, Koch J, Herian U, Theilmann L, Bartenschlager R., Science 285(5424):110-3 (1999) and modified to introduce a luciferase reporter (Krieger N, Lohmann V, and Bartenschlager R, J. Virol. 75(10):4614-4624 (2001)). cDNA encoding a humanized form of the Renilla luciferase gene, and a linker sequence fused directly to the 3′-end of the luciferase gene were introduced into the replicon construct using an Asc1 restriction site located in core, directly upstream of the neomycin marker gene. The adaptive mutation at position 1179 (serine to isoleucine) was also introduced (Blight K J, Kolykhalov, A A, Rice, C M, Science 290(5498):1972-1974). A stable cell line constitutively expressing this HCV replicon construct was generated by first linearizing plasmid DNAs with ScaI. RNA transcripts were synthesized in vitro using the T7 MegaScript transcription kit (Ambion, Austin, Tex.) according to manufacturer's directions. In vitro transcripts of the cDNA were transfected into the human hepatoma cell line, HUH-7. […] Resulting cell lines were characterized for positive and negative strand RNA production and protein production over time.
as §1, §2

| SMILES | EC50 (HCV GT1a(H77) replicon; read-out: LE_1a (EC50, range)) [nM] | EC50 (HCV GT1b(Con1) replicon; read-out: LE_1b (EC50, range)) [nM] | EC50 (HCV GT1a(H77) replicon; read-out: LE_1a (EC50)) [nM] | EC50 (HCV GT1b(Con1) replicon; read-out: LE_1b (EC50)) [nM] |
| --- | --- | --- | --- | --- |
| CC(C)Oc1ccc(-c2cc(O[C@@H]3C[C@H]4C(=O)N[C@]5(C(=O)NS(=O)(=O)C6(C)CC6)C[C@H]5/C=C\CC[C@H](C)C[C@@H](C)[C@H](NC(=O)OC(C)(C)C(F)(F)F)C(=O)N4C3)cc(-c3cncs3)n2)cc1 [Compound 1004, 1,1,1-trifluoro-2-methylpropan-2-yl ((2R,6S,7R,9S,13aS,14aR,16aS,Z)-2-((2-(4-isopropoxyphenyl)-6-(thiazol-5-yl)pyridin-4-yl)oxy)-7,9-dimethyl-14a-(((1-methylcyclopropyl)sulfonyl)carbamoyl)-5,16-dioxo-1,2,3,5,6,7,8,9,10,11,13a,14,14a,15,16,16a-hexadecahydrocyclopropa[e]pyrrolo[1,2-a][1,4]diazacyclopentadecin-6-yl)carbamate] | 5.01 to 35 | 1.01 to 5 |  |  |
| CC(C)Oc1ccc(-c2cc(O[C@@H]3C[C@H]4C(=O)N[C@]5(C(=O)NS(=O)(=O)C6(C)CC6)C[C@H]5/C=C\CC[C@@H](C)C[C@@H](C)[C@H](NC(=O)OC(C)(C)C(F)(F)F)C(=O)N4C3)cc(-c3cccnc3)n2)cc1 [Compound 1005, 1,1,1-trifluoro-2-methylpropan-2-yl ((2R,6S,7R,9R,13aS,14aR,16aS,Z)-2-((6-(4-isopropoxyphenyl)-[2,3′-bipyridin]-4-yl)oxy)-7,9-dimethyl-14a-(((1-methylcyclopropyl)sulfonyl)carbamoyl)-5,16-dioxo-1,2,3,5,6,7,8,9,10,11,13a,14,14a,15,16,16a-hexadecahydrocyclopropa[e]pyrrolo[1,2-a][1,4]diazacyclopentadecin-6-yl)carbamate] | 1.01 to 5 | 1.01 to 5 | 1.48 | 1.71 |
| CC(C)Oc1ccc(-c2cc(O[C@@H]3C[C@H]4C(=O)N[C@]5(C(=O)NS(=O)(=O)C6(C)CC6)C[C@H]5/C=C\CC[C@H](C)C[C@@H](C)[C@H](NC(=O)OC(C)(C)C(F)(F)F)C(=O)N4C3)cc(-c3cccnc3)n2)cc1 [Compound 1006, 1,1,1-trifluoro-2-methylpropan-2-yl ((2R,6S,7R,9S,13aS,14aR,16aS,Z)-2-((6-(4-isopropoxyphenyl)-[2,3′-bipyridin]-4-yl)oxy)-7,9-dimethyl-14a-(((1-methylcyclopropyl)sulfonyl)carbamoyl)-5,16-dioxo-1,2,3,5,6,7,8,9,10,11,13a,14,14a,15,16,16a-hexadecahydrocyclopropa[e]pyrrolo[1,2-a][1,4]diazacyclopentadecin-6-yl)carbamate] | 5.01 to 35 | 5.01 to 35 |  |  |
| CC(C)Oc1ccc(-c2cc(O[C@@H]3C[C@H]4C(=O)N[C@]5(C(=O)NS(=O)(=O)C6(C)CC6)C[C@H]5/C=C\CC[C@@H](C)C[C@@H](C)[C@H](NC(=O)OC(C)(C)C(F)(F)F)C(=O)N4C3)cc(-c3nccs3)n2)cc1 [Compound 1007, 1,1,1-trifluoro-2-methylpropan-2-yl ((2R,6S,7R,9R,13aS,14aR,16aS,Z)-2-((2-(4-isopropoxyphenyl)-6-(thiazol-2-yl)pyridin-4-yl)oxy)-7,9-dimethyl-14a-(((1-methylcyclopropyl)sulfonyl)carbamoyl)-5,16-dioxo-1,2,3,5,6,7,8,9,10,11,13a,14,14a,15,16,16a-hexadecahydrocyclopropa[e]pyrrolo[1,2-a][1,4]diazacyclopentadecin-6-yl)carbamate] | 1.01 to 5 | 1.01 to 5 |  |  |
| CC(C)Oc1ccc(-c2cc(O[C@@H]3C[C@H]4C(=O)N[C@]5(C(=O)NS(=O)(=O)C6(C)CC6)C[C@H]5/C=C\CC[C@H](C)C[C@@H](C)[C@H](NC(=O)OC(C)(C)C(F)(F)F)C(=O)N4C3)cc(-c3nccs3)n2)cc1 [Compound 1008, 1,1,1-trifluoro-2-methylpropan-2-yl ((2R,6S,7R,9S,13aS,14aR,16aS,Z)-2-((2-(4-isopropoxyphenyl)-6-(thiazol-2-yl)pyridin-4-yl)oxy)-7,9-dimethyl-14a-(((1-methylcyclopropyl)sulfonyl)carbamoyl)-5,16-dioxo-1,2,3,5,6,7,8,9,10,11,13a,14,14a,15,16,16a-hexadecahydrocyclopropa[e]pyrrolo[1,2-a][1,4]diazacyclopentadecin-6-yl)carbamate] | 5.01 to 35 | 1.01 to 5 |  |  |
| CC(C)Oc1ccc(-c2cc(O[C@@H]3C[C@H]4C(=O)N[C@]5(C(=O)NS(=O)(=O)C6(C)CC6)C[C@H]5/C=C\CC[C@@H](C)C[C@@H](C)[C@H](NC(=O)OC(C)(C)C(F)(F)F)C(=O)N4C3)cc(-c3ccncc3)n2)cc1 [Compound 1009, 1,1,1-trifluoro-2-methylpropan-2-yl ((2R,6S,7R,9R,13aS,14aR,16aS,Z)-2-((6-(4-isopropoxyphenyl)-[2,4′-bipyridin]-4-yl)oxy)-7,9-dimethyl-14a-(((1-methylcyclopropyl)sulfonyl)carbamoyl)-5,16-dioxo-1,2,3,5,6,7,8,9,10,11,13a,14,14a,15,16,16a-hexadecahydrocyclopropa[e]pyrrolo[1,2-a][1,4]diazacyclopentadecin-6-yl)carbamate] | 1.01 to 5 | 1.01 to 5 |  |  |
| CC(C)Oc1ccc(-c2cc(O[C@@H]3C[C@H]4C(=O)N[C@]5(C(=O)NS(=O)(=O)C6(C)CC6)C[C@H]5/C=C\CC[C@H](C)C[C@@H](C)[C@H](NC(=O)OC(C)(C)C(F)(F)F)C(=O)N4C3)cc(-c3ccncc3)n2)cc1 [Compound 1010, 1,1,1-trifluoro-2-methylpropan-2-yl ((2R,6S,7R,9S,13aS,14aR,16aS,Z)-2-((6-(4-isopropoxyphenyl)-[2,4′-bipyridin]-4-yl)oxy)-7,9-dimethyl-14a-(((1-methylcyclopropyl)sulfonyl)carbamoyl)-5,16-dioxo-1,2,3,5,6,7,8,9,10,11,13a,14,14a,15,16,16a-hexadecahydrocyclopropa[e]pyrrolo[1,2-a][1,4]diazacyclopentadecin-6-yl)carbamate] | 5.01 to 35 | 5.01 to 35 |  |  |
| COc1cccc(-c2cc(O[C@@H]3C[C@H]4C(=O)N[C@]5(C(=O)NS(=O)(=O)C6(C)CC6)C[C@H]5/C=C\CC[C@@H](C)C[C@@H](C)[C@H](NC(=O)OC(C)(C)C(F)(F)F)C(=O)N4C3)cc(-c3ccc(OC(C)C)cc3)n2)n1 [Compound 1011, 1,1,1-trifluoro-2-methylpropan-2-yl ((2R,6S,7R,9R,13aS,14aR,16aS,Z)-2-((6-(4-isopropoxyphenyl)-6′-methoxy-[2,2′-bipyridin]-4-yl)oxy)-7,9-dimethyl-14a-(((1-methylcyclopropyl)sulfonyl)carbamoyl)-5,16-dioxo-1,2,3,5,6,7,8,9,10,11,13a,14,14a,15,16,16a-hexadecahydrocyclopropa[e]pyrrolo[1,2-a][1,4]diazacyclopentadecin-6-yl)carbamate] | 1.01 to 5 | 1.01 to 5 |  |  |
| CC(C)Oc1ccc(-c2cc(O[C@@H]3C[C@H]4C(=O)N[C@]5(C(=O)NS(=O)(=O)C6(C)CC6)C[C@H]5/C=C\CC[C@@H](C)C[C@@H](C)[C@H](NC(=O)OC(C)(C)C(F)(F)F)C(=O)N4C3)cc(-n3cccn3)n2)cc1 [Compound 1013, 1,1,1-trifluoro-2-methylpropan-2-yl ((2R,6S,7R,9R,13aS,14aR,16aS,Z)-2-((2-(4-isopropoxyphenyl)-6-(1H-pyrazol-1-yl)pyridin-4-yl)oxy)-7,9-dimethyl-14a-(((1-methylcyclopropyl)sulfonyl)carbamoyl)-5,16-dioxo-1,2,3,5,6,7,8,9,10,11,13a,14,14a,15,16,16a-hexadecahydrocyclopropa[e]pyrrolo[1,2-a][1,4]diazacyclopentadecin-6-yl)carbamate] | 1.01 to 5 | 1.01 to 5 |  |  |
